Test results reported in the SangsterLogP compilation.

| SMILES | logP |
| --- | --- |
| CC(=O)N(C)CCC(=O)NCc1ccccc1 | 1.12 |
| CC(NC(=O)OCc1ccccc1)C(=O)OCc1ccccc1 (centres undefined) | 3.84 |
| CC(=O)NC(C)C(=O)NCC(C)C (centres undefined) | 0.56 |
| O=C(NC(CCC1CCCCC1)C(=O)OCCC1CCCCC1)OCc1ccccc1 (centres undefined) | 6.39 |
| CC(=O)NCCC(=O)NCc1ccccc1 | 0.76 |
| CC(=O)N(C)CC(=O)NCc1ccccc1 | 0.94 |
| CCNC(C)C(=O)NCc1ccccc1 (centres undefined) | 1.71 |
| O=C(NC(O)C(=O)O)OCc1ccccc1 (centres undefined) | 1.63 |
| CC(=O)NC(C)(C)C(=O)NCc1ccccc1 | 1.32 |
| CC(=O)N(C)C(C)C(=O)NCc1ccco1 (centres undefined) | -0.55 |
| CCCCNC(=O)C(C)NC(C)=O (centres undefined) | 0.55 |
| CN[C@H](C)C(=O)NCc1ccc(F)cc1 | 1.51 |
| CC(=O)N1CCC[C@@H]1C(=O)NCc1ccccc1 | 1.46 |
| CC(=O)NC(C)C(=O)NCCC(C)C (centres undefined) | 0.88 |
| CC(=O)N1CSCC1C(=O)NCc1ccccc1 (centres undefined) | 1.29 |
| CC(=O)N(C)C(C)C(=O)NCc1ccccc1 (centres undefined) | 1.48 |
| CC(NC(=O)OCc1ccccc1)C(=O)NCc1ccccc1 (centres undefined) | 3.52 |
| CC(=O)NC(CC(C)C)C(=O)NCc1ccccc1 (centres undefined) | 2.31 |
| CC(=O)NCCCC(=O)NCc1ccccc1 | 1.01 |
| CC(=O)NC(CCCNC(=N)N[N+](=O)[O-])C(=O)NCc1ccccc1 (centres undefined) | 0.45 |
| CNC(C)C(=O)NCc1ccco1 (centres undefined) | -0.66 |
| CC(=O)NC(Cc1ccc(Cl)cc1)C(=O)NCc1ccccc1 (centres undefined) | 3.72 |
| CC(C(=O)NCc1ccccc1)N(C)C(=O)OC(C)(C)C (centres undefined) | 2.94 |
| CC(C(=O)NCc1ccccc1)N(C)C (centres undefined) | 1.73 |
| CN[C@H](C)C(=O)NCc1ccc(OC)cc1 | 1.11 |
| CNCCC(=O)NCc1ccccc1 | 1.01 |
| CNC(C)C(=O)NCc1cccnc1 (centres undefined) | 0.05 |
| CC(=O)N[C@@H](Cc1c[nH]c2ccccc12)C(=O)NCc1ccccc1 | 2.17 |
| CN1CSCC1C(=O)NCc1ccccc1 (centres undefined) | 1.85 |
